In PubChem BioAssay (NCI):
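GI50 marks 50% less growth. TGI: total growth inhibition.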

What was measured:
Assay in all cases: NCI anticancer screen, dose series, 384-well format
[1] = tested on: NCI-H522 lung
[2] = tested on: NCI-H322M lung
[3] = tested on: SK-OV-3 ovarian
[4] = tested on: MALME-3M melanoma
[5] = tested on: RPMI-8226 leukemia
[6] = tested on: HL-60(TB) leukemia
[7] = tested on: IGROV1 ovarian
[8] = tested on: KM12 colon
[9] = tested on: MDA-MB-468 breast
[10] = tested on: NCI-H23 lung
[11] = tested on: HCT-116 colon
[12] = tested on: SN12C renal
[13] = tested on: OVCAR-5 ovarian
[14] = tested on: HS 578T breast
[15] = tested on: SK-MEL-28 melanoma
[16] = tested on: SF-539 CNS
[17] = tested on: SNB-19 CNS
[18] = tested on: NCI-H226 lung
[19] = tested on: HOP-92 NSCLC
[20] = tested on: SF-268 CNS
[21] = tested on: MDA-MB-231 breast
[22] = tested on: A498 renal
[23] = tested on: MCF7 breast
[24] = tested on: T-47D breast
[25] = tested on: DU-145 prostate
[26] = tested on: OVCAR-8 ovarian

Cn1ncnc1C1c2n[nH]c(=O)c3cc(F)cc(c23)NC1c1ccc(F)cc1 (configuration not stated)
GI50 [1]: > 100 µM
TGI [1]: > 100 µM
GI50 [2]: > 100 µM
TGI [2]: > 100 µM
GI50 [3]: 2.3 µM
TGI [3]: > 100 µM
GI50 [4]: > 100 µM
TGI [4]: > 100 µM
GI50 [5]: 1.65 µM
TGI [5]: > 100 µM
GI50 [6]: 1.2 µM
TGI [6]: 2.56 µM
GI50 [7]: > 100 µM
TGI [7]: > 100 µM
GI50 [8]: > 100 µM
TGI [8]: > 100 µM
GI50 [9]: 0.677 µM
TGI [9]: 4.68 µM
GI50 [10]: 1.89 µM
TGI [10]: > 100 µM
GI50 [11]: 0.857 µM
TGI [11]: > 100 µM
GI50 [12]: 1.53 µM
TGI [12]: > 100 µM
GI50 [13]: > 100 µM
TGI [13]: > 100 µM
GI50 [14]: > 100 µM
TGI [14]: > 100 µM
GI50 [15]: > 100 µM
TGI [15]: > 100 µM
GI50 [16]: 1.81 µM
TGI [16]: > 100 µM
GI50 [17]: 5.2 µM
TGI [17]: > 100 µM
GI50 [18]: > 100 µM
TGI [18]: > 100 µM
GI50 [19]: > 100 µM
TGI [19]: > 100 µM
GI50 [20]: 1.73 µM
TGI [20]: > 100 µM
GI50 [21]: > 100 µM
TGI [21]: > 100 µM
GI50 [22]: 24.8 µM
TGI [22]: > 100 µM
GI50 [23]: 3.63 µM
TGI [23]: > 100 µM
GI50 [24]: > 100 µM
TGI [24]: > 100 µM
GI50 [25]: 2.2 µM
TGI [25]: 14.4 µM
GI50 [26]: 2.15 µM
TGI [26]: > 100 µM
